Columns and labels:
Assay in all cases: relative viability (nuclei count vs DMSO), 5 days (fraction); higher = more cells survive
ABC-1 = system: ABC-1
Procedure, shortened: (§1)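 For relative viability, nuclei counts in treated wells were divided by those in vehicle wells. Lung cancer cell lines had been pin-tool dosed in 1536-well plates the day after seeding and cultured for 5 days, then fixed and stained in one step (final 0.05% Triton X-100, 1% formaldehyde, 1 ug/ml Hoechst) and imaged at 4×. Doses were one drug alone or a fixed anchor-drug dose plus five library-drug doses (not always all listed) in √10 steps, and values are duplicate-plate medians.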

COR-L23 = system: COR-L23
Procedure, shortened: as §1

EMC-BAC-2 = system: EMC-BAC-2
Procedure, shortened: as §1

HARA = system: HARA
Procedure, shortened: as §1

HCC-15 = system: HCC-15
Procedure, shortened: as §1

HCC-366 = system: HCC-366
Procedure, shortened: as §1

HCC-78 = system: HCC-78
Procedure, shortened: as §1

HOP-62 = system: HOP-62
Procedure, shortened: as §1

LC-2-ad = system: LC-2-ad
Procedure, shortened: as §1

NCI-H1395 = system: NCI-H1395
Procedure, shortened: as §1

NCI-H1793 = system: NCI-H1793
Procedure, shortened: as §1

NCI-H1944 = system: NCI-H1944
Procedure, shortened: as §1

NCI-H1993 = system: NCI-H1993
Procedure, shortened: as §1

NCI-H2023 = system: NCI-H2023
Procedure, shortened: as §1

NCI-H2126 = system: NCI-H2126
Procedure, shortened: as §1

NCI-H2228 = system: NCI-H2228
Procedure, shortened: as §1

NCI-H23 = system: NCI-H23
Procedure, shortened: as §1

NCI-H2405 = system: NCI-H2405
Procedure, shortened: as §1

NCI-H358 = system: NCI-H358
Procedure, shortened: as §1

NCI-H838 = system: NCI-H838
Procedure, shortened: as §1

SK-LU-1 = system: SK-LU-1
Procedure, shortened: as §1

Compound `O=c1cc(-c2cccc3c2Sc2ccccc2S3)oc(N2CCOCC2)c1` + C[C@]1(O)C[C@@H](c2nc(-c3ccc4ccc(-c5ccccc5)nc4c3)c3c(N)nccn32)C1 [Linsitinib] (partner 1 µM) has a relative viability (ABC-1; first compound 0.08 µM) of 0.627, a relative viability (ABC-1; first compound 0.253 µM) of 1.02 and a relative viability (ABC-1; first compound 0.8 µM) of 0.717. The relative viability (ABC-1; first compound 2.53 µM) was 0.711, the relative viability (ABC-1; first compound 8 µM) was 0.954 and the relative viability (COR-L23; first compound 0.08 µM) was 0.958. It also gave a relative viability (COR-L23; first compound 0.253 µM) of 0.965, a relative viability (COR-L23; first compound 0.8 µM) of 1.13 and a relative viability (COR-L23; first compound 2.53 µM) of 1.08. For the same compound, the relative viability (COR-L23; first compound 8 µM) was 1.04, the relative viability (EMC-BAC-2; first compound 0.08 µM) was 0.828 and the relative viability (EMC-BAC-2; first compound 0.253 µM) was 0.9. The relative viability (EMC-BAC-2; first compound 0.8 µM) was 0.842, the relative viability (EMC-BAC-2; first compound 2.53 µM) was 0.817 and the relative viability (EMC-BAC-2; first compound 8 µM) was 0.878. For the same compound, the relative viability (HARA; first compound 0.08 µM) was 1.01, the relative viability (HARA; first compound 0.253 µM) was 1.2 and the relative viability (HARA; first compound 0.8 µM) was 1.08. It also gave a relative viability (HARA; first compound 2.53 µM) of 0.948, a relative viability (HARA; first compound 8 µM) of 0.743 and a relative viability (HCC-15; first compound 0.08 µM) of 0.958. The relative viability (HCC-15; first compound 0.253 µM) was 0.93, the relative viability (HCC-15; first compound 0.8 µM) was 0.904 and the relative viability (HCC-15; first compound 2.53 µM) was 0.844. The relative viability (HCC-15; first compound 8 µM) was 0.88, the relative viability (HCC-366; first compound 0.08 µM) was 0.605 and the relative viability (HCC-366; first compound 0.253 µM) was 1.07. For the same compound, the relative viability (HCC-366; first compound 0.8 µM) was 0.711, the relative viability (HCC-366; first compound 2.53 µM) was 0.744 and the relative viability (HCC-366; first compound 8 µM) was 0.573. It also gave a relative viability (HCC-78; first compound 0.08 µM) of 0.561, a relative viability (HCC-78; first compound 0.253 µM) of 0.746 and a relative viability (HCC-78; first compound 0.8 µM) of 0.41. The relative viability (HCC-78; first compound 2.53 µM) was 0.457, the relative viability (HCC-78; first compound 8 µM) was 0.575 and the relative viability (HOP-62; first compound 0.08 µM) was 1.04. For the same compound, the relative viability (HOP-62; first compound 0.253 µM) was 1.01, the relative viability (HOP-62; first compound 0.8 µM) was 1.01 and the relative viability (HOP-62; first compound 2.53 µM) was 0.789. It also gave a relative viability (HOP-62; first compound 8 µM) of 0.917, a relative viability (LC-2-ad; first compound 0.08 µM) of 0.79 and a relative viability (LC-2-ad; first compound 0.253 µM) of 0.967. The relative viability (LC-2-ad; first compound 0.8 µM) was 0.828, the relative viability (LC-2-ad; first compound 2.53 µM) was 0.749 and the relative viability (LC-2-ad; first compound 8 µM) was 0.802. For the same compound, the relative viability (NCI-H1395; first compound 0.08 µM) was 1.25, the relative viability (NCI-H1395; first compound 0.253 µM) was 1.06 and the relative viability (NCI-H1395; first compound 0.8 µM) was 1.26. The relative viability (NCI-H1395; first compound 2.53 µM) was 0.941, the relative viability (NCI-H1395; first compound 8 µM) was 1.07 and the relative viability (NCI-H1793; first compound 0.08 µM) was 0.674. It also gave a relative viability (NCI-H1793; first compound 0.253 µM) of 1.19, a relative viability (NCI-H1793; first compound 0.8 µM) of 0.992 and a relative viability (NCI-H1793; first compound 2.53 µM) of 0.821. The relative viability (NCI-H1793; first compound 8 µM) was 0.919, the relative viability (NCI-H1944; first compound 0.08 µM) was 1.04 and the relative viability (NCI-H1944; first compound 0.253 µM) was 1.26. The relative viability (NCI-H1944; first compound 0.8 µM) was 1.23, the relative viability (NCI-H1944; first compound 8 µM) was 1.18 and the relative viability (NCI-H1993; first compound 0.08 µM) was 0.739. For the same compound, the relative viability (NCI-H1993; first compound 0.253 µM) was 0.683, the relative viability (NCI-H1993; first compound 0.8 µM) was 0.687 and the relative viability (NCI-H1993; first compound 2.53 µM) was 0.799. For the same compound, the relative viability (NCI-H1993; first compound 8 µM) was 0.859, the relative viability (NCI-H2023; first compound 0.08 µM) was 0.611 and the relative viability (NCI-H2023; first compound 0.253 µM) was 0.747. It also gave a relative viability (NCI-H2023; first compound 0.8 µM) of 0.723, a relative viability (NCI-H2023; first compound 2.53 µM) of 0.458 and a relative viability (NCI-H2023; first compound 8 µM) of 0.416. The relative viability (NCI-H2126; first compound 0.08 µM) was 0.707, the relative viability (NCI-H2126; first compound 0.253 µM) was 0.809 and the relative viability (NCI-H2126; first compound 0.8 µM) was 0.708. It also gave a relative viability (NCI-H2126; first compound 2.53 µM) of 0.667, a relative viability (NCI-H2126; first compound 8 µM) of 0.592 and a relative viability (NCI-H2228; first compound 0.08 µM) of 0.545. It also gave a relative viability (NCI-H2228; first compound 0.253 µM) of 0.588, a relative viability (NCI-H2228; first compound 0.8 µM) of 0.826 and a relative viability (NCI-H2228; first compound 2.53 µM) of 0.592. It also gave a relative viability (NCI-H2228; first compound 8 µM) of 0.63, a relative viability (NCI-H23; first compound 0.08 µM) of 0.596 and a relative viability (NCI-H23; first compound 0.253 µM) of 0.738. For the same compound, the relative viability (NCI-H23; first compound 0.8 µM) was 0.578, the relative viability (NCI-H23; first compound 2.53 µM) was 0.684 and the relative viability (NCI-H23; first compound 8 µM) was 0.574. For the same compound, the relative viability (NCI-H2405; first compound 0.08 µM) was 0.878, the relative viability (NCI-H2405; first compound 0.253 µM) was 0.924 and the relative viability (NCI-H2405; first compound 0.8 µM) was 0.85. The relative viability (NCI-H2405; first compound 2.53 µM) was 0.822, the relative viability (NCI-H2405; first compound 8 µM) was 0.768 and the relative viability (NCI-H358; first compound 0.08 µM) was 0.618. It also gave a relative viability (NCI-H358; first compound 0.253 µM) of 0.665, a relative viability (NCI-H358; first compound 0.8 µM) of 0.79 and a relative viability (NCI-H358; first compound 2.53 µM) of 0.707. The relative viability (NCI-H358; first compound 8 µM) was 0.784, the relative viability (NCI-H838; first compound 0.08 µM) was 0.958 and the relative viability (NCI-H838; first compound 0.253 µM) was 1.49. The relative viability (NCI-H838; first compound 0.8 µM) was 0.821, the relative viability (NCI-H838; first compound 2.53 µM) was 0.859 and the relative viability (NCI-H838; first compound 8 µM) was 0.899. The relative viability (SK-LU-1; first compound 0.08 µM) was 1.14, the relative viability (SK-LU-1; first compound 0.253 µM) was 1.22 and the relative viability (SK-LU-1; first compound 0.8 µM) was 1.27. The relative viability (SK-LU-1; first compound 2.53 µM) was 0.952 and the relative viability (SK-LU-1; first compound 8 µM) was 0.918.

— the supplement of paper PMC10307832
